Laboratory results reported in patent US20210395239A1 (Hoffmann-La Roche Inc., priority 2018, published 2021).
pIC50: −log10 of the molar value.

What follows are compounds tested against T1, human TLR7 (Homo sapiens, UniProt Q9NYK1) (assay: HEK293-Blue-hTLR-7 cells assay (SEAP reporter, R848 stimulation)). Conditions: HEK293-Blue-hTLR7 cells, R848, 20 hrs; read-out: HEK/hTLR7 IC50.
T1 construct: host or cells: HEK293 (HEK-Blue hTLR7)
T1 sequence (Q9NYK1 27-1049): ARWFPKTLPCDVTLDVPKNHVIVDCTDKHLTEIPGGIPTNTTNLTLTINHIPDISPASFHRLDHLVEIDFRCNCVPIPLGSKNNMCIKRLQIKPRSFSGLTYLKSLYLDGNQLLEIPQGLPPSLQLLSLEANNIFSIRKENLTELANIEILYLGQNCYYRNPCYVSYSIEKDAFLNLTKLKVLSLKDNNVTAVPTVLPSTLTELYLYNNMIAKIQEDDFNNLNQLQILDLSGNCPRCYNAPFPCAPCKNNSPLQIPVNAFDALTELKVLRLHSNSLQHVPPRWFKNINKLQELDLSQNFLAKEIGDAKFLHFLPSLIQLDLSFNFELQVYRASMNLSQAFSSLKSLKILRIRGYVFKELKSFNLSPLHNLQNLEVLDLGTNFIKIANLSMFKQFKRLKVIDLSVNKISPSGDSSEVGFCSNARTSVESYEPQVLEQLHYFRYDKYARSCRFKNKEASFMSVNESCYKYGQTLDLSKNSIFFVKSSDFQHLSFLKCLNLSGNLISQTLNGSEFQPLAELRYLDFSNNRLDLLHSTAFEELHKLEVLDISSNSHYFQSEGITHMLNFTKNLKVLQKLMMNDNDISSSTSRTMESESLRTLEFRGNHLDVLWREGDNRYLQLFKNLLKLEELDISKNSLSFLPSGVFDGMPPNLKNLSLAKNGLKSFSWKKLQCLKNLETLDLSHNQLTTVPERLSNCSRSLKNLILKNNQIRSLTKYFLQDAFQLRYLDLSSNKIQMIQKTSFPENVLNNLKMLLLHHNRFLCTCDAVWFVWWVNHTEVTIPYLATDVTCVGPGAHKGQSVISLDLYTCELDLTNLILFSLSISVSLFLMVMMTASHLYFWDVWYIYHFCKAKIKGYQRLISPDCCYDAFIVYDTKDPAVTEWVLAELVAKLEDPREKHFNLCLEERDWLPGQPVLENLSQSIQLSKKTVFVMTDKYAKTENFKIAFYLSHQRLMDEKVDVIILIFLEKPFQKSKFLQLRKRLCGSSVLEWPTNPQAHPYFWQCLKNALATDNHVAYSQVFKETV
Format: cell-based
How it was run: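 HEK293-Blue-hTLR7 cells (NF-κB/AP-1-driven SEAP reporter) were stimulated with R848 alongside serially diluted compound at 1% final DMSO for 20 h at 37 °C. Supernatant SEAP was then developed with QUANTI-Blue for 2 h at 37 °C and absorbance read at 620–655 nm; antagonism is measured as reduced reporter signal.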

In order of rising pIC50:
1. C[C@@H]1CN(c2ccc(C#N)c3ncccc23)C[C@H](CN2CCN(c3cccc(N[C@H]4CNC[C@H]4F)n3)CC2)O1 [Example 37, 5-[(2S,6R)-2-[[4-[6-[[(3S,4R)-4-fluoropyrrolidin-3-yl]amino]-2-pyridyl]piperazin-1-yl]methyl]-6-methyl-morpholin-4-yl]quinoline-8-carbonitrile]  7.15
2. COC1CNC[C@H]1Nc1cccc(N2CCN(C[C@H]3CN(c4ccc(C#N)c5ncccc45)C[C@@H](C)O3)CC2)n1 (stereo in doubt) [Example 39, 5-[(2S,6R)-2-[[4-[6-[[(3R,4R)-4-methoxypyrrolidin-3-yl]amino]-2-pyridyl]piperazin-1-yl]methyl]-6-methyl-morpholin-4-yl]quinoline-8-carbonitrile]  7.29
3. C[C@@H]1CN(c2ccc(C#N)c3ncccc23)C[C@H](CN2CCN(c3cccc(N4CCNCC4)n3)CC2)O1 [Example 10, 5-[(2R,6S)-2-methyl-6-[[4-(6-piperazin-1-yl-2-pyridyl)piperazin-1-yl]methyl]morpholin-4-yl]quinoline-8-carbonitrile]  7.48
4. Cc1cc(N2CCNCC2)nc(N2CCN(C[C@H]3CN(c4ccc(C#N)c5ncccc45)C[C@@H](C)O3)CC2)n1 [Example 68, 5-[(2R,6S)-2-methyl-6-[[4-(4-methyl-6-piperazin-1-yl-pyrimidin-2-yl)piperazin-1-yl]methyl]morpholin-4-yl]quinoline-8-carbonitrile]  8.05
